{"source": "PubChem BioAssay AID1259407", "about": "(Chemical Carcinogenesis Research Information System (CCRIS), 2018)", "test_system": "CCRIS mutagenicity, Ames/micronucleus/aberration tests", "assay": "CCRIS mutagenicity studies", "note": "The source made the active and inactive calls. The rule behind the calls is not given here."}
{"smiles": "CC(=O)Nc1ccc(C(=O)CCl)cc1", "values": [{"measurement": "mutagenic call", "setting": "Test System: AMES SALMONELLA TYPHIMURIUM, Strain/Indicator: TA98, Metabolic Activation: HAMSTER, LIVER, S-9, AROCLOR 1254, Method: STANDARD PLATE", "result": "active; positive"}, {"measurement": "mutagenic call", "setting": "Test System: AMES SALMONELLA TYPHIMURIUM, Strain/Indicator: TA98, Metabolic Activation: HAMSTER, LIVER, S-9, Method: STANDARD PLATE", "result": "active; positive"}, {"measurement": "mutagenic call", "setting": "Test System: AMES SALMONELLA TYPHIMURIUM, Strain/Indicator: TA98, Metabolic Activation: MOUSE, LIVER, S-9, Method: STANDARD PLATE", "result": "inactive; negative"}, {"measurement": "mutagenic call", "setting": "Test System: AMES SALMONELLA TYPHIMURIUM, Strain/Indicator: TA98, Metabolic Activation: NONE", "result": "active; positive"}, {"measurement": "mutagenic call", "setting": "Test System: AMES SALMONELLA TYPHIMURIUM, Strain/Indicator: TA98, Metabolic Activation: RAT, LIVER, S-9, AROCLOR 1254, Method: STANDARD PLATE", "result": "inactive; negative"}, {"measurement": "mutagenic call", "setting": "Test System: AMES SALMONELLA TYPHIMURIUM, Strain/Indicator: TA98, Metabolic Activation: RAT, LIVER, S-9, PHENOBARBITONE AND BETA-NAPHTHOFLAVONE", "result": "active; positive"}, {"measurement": "mutagenic call", "setting": "Test System: AMES SALMONELLA TYPHIMURIUM, Strain/Indicator: TA98, Metabolic Activation: RAT, LIVER, S-9, Method: STANDARD PLATE", "result": "inactive; negative"}, {"measurement": "mutagenic call", "setting": "Test System: AMES SALMONELLA TYPHIMURIUM, Strain/Indicator: TA100, Metabolic Activation: HAMSTER, LIVER, S-9, AROCLOR 1254, Method: STANDARD PLATE", "result": "inactive; negative"}, {"measurement": "mutagenic call", "setting": "Test System: AMES SALMONELLA TYPHIMURIUM, Strain/Indicator: TA100, Metabolic Activation: HAMSTER, LIVER, S-9, Method: STANDARD PLATE", "result": "inactive; negative"}, {"measurement": "mutagenic call", "setting": "Test System: AMES SALMONELLA TYPHIMURIUM, Strain/Indicator: TA100, Metabolic Activation: MOUSE, LIVER, S-9, AROCLOR 1254, Method: STANDARD PLATE", "result": "inactive; negative"}, {"measurement": "mutagenic call", "setting": "Test System: AMES SALMONELLA TYPHIMURIUM, Strain/Indicator: TA100, Metabolic Activation: MOUSE, LIVER, S-9, Method: STANDARD PLATE", "result": "inactive; negative"}, {"measurement": "mutagenic call", "setting": "Test System: AMES SALMONELLA TYPHIMURIUM, Strain/Indicator: TA100, Metabolic Activation: NONE", "result": "inactive; negative"}, {"measurement": "mutagenic call", "setting": "Test System: AMES SALMONELLA TYPHIMURIUM, Strain/Indicator: TA100, Metabolic Activation: NONE, Method: STANDARD PLATE", "result": "inactive; negative"}, {"measurement": "mutagenic call", "setting": "Test System: AMES SALMONELLA TYPHIMURIUM, Strain/Indicator: TA100, Metabolic Activation: RAT, LIVER, S-9, AROCLOR 1254, Method: STANDARD PLATE", "result": "inactive; negative"}, {"measurement": "mutagenic call", "setting": "Test System: AMES SALMONELLA TYPHIMURIUM, Strain/Indicator: TA100, Metabolic Activation: RAT, LIVER, S-9, PHENOBARBITONE AND BETA-NAPHTHOFLAVONE", "result": "inactive; negative"}, {"measurement": "mutagenic call", "setting": "Test System: AMES SALMONELLA TYPHIMURIUM, Strain/Indicator: TA100, Metabolic Activation: RAT, LIVER, S-9, Method: STANDARD PLATE", "result": "inactive; negative"}, {"measurement": "mutagenic call", "setting": "Test System: AMES SALMONELLA TYPHIMURIUM, Strain/Indicator: TA1535, Metabolic Activation: HAMSTER, LIVER, S-9, AROCLOR 1254, Method: STANDARD PLATE", "result": "inactive; negative"}, {"measurement": "mutagenic call", "setting": "Test System: AMES SALMONELLA TYPHIMURIUM, Strain/Indicator: TA1535, Metabolic Activation: HAMSTER, LIVER, S-9, Method: STANDARD PLATE", "result": "inactive; negative"}, {"measurement": "mutagenic call", "setting": "Test System: AMES SALMONELLA TYPHIMURIUM, Strain/Indicator: TA1535, Metabolic Activation: MOUSE, LIVER, S-9, AROCLOR 1254, Method: STANDARD PLATE", "result": "inactive; negative"}, {"measurement": "mutagenic call", "setting": "Test System: AMES SALMONELLA TYPHIMURIUM, Strain/Indicator: TA1535, Metabolic Activation: MOUSE, LIVER, S-9, Method: STANDARD PLATE", "result": "inactive; negative"}, {"measurement": "mutagenic call", "setting": "Test System: AMES SALMONELLA TYPHIMURIUM, Strain/Indicator: TA1535, Metabolic Activation: NONE, Method: STANDARD PLATE", "result": "inactive; negative"}, {"measurement": "mutagenic call", "setting": "Test System: AMES SALMONELLA TYPHIMURIUM, Strain/Indicator: TA1535, Metabolic Activation: RAT, LIVER, S-9, AROCLOR 1254, Method: STANDARD PLATE", "result": "inactive; negative"}, {"measurement": "mutagenic call", "setting": "Test System: AMES SALMONELLA TYPHIMURIUM, Strain/Indicator: TA1535, Metabolic Activation: RAT, LIVER, S-9, Method: STANDARD PLATE", "result": "inactive; negative"}, {"measurement": "mutagenic call", "setting": "Test System: AMES SALMONELLA TYPHIMURIUM, Strain/Indicator: TA1537, Metabolic Activation: HAMSTER, LIVER, S-9, Method: STANDARD PLATE", "result": "inactive; negative"}, {"measurement": "mutagenic call", "setting": "Test System: AMES SALMONELLA TYPHIMURIUM, Strain/Indicator: TA1537, Metabolic Activation: MOUSE, LIVER, S-9, Method: STANDARD PLATE", "result": "inactive; negative"}, {"measurement": "mutagenic call", "setting": "Test System: AMES SALMONELLA TYPHIMURIUM, Strain/Indicator: TA1538, Metabolic Activation: NONE", "result": "inactive; negative"}, {"measurement": "mutagenic call", "setting": "Test System: AMES SALMONELLA TYPHIMURIUM, Strain/Indicator: TA1538, Metabolic Activation: RAT, LIVER, S-9, AROCLOR 1254, Method: STANDARD PLATE", "result": "inactive; negative"}, {"measurement": "mutagenic call", "setting": "Test System: AMES SALMONELLA TYPHIMURIUM, Strain/Indicator: TA1538, Metabolic Activation: RAT, LIVER, S-9, PHENOBARBITONE AND BETA-NAPHTHOFLAVONE", "result": "active; positive"}, {"measurement": "mutagenic call", "setting": "Test System: AMES SALMONELLA TYPHIMURIUM, Strain/Indicator: TA1538, Metabolic Activation: RAT, LIVER, S-9, Method: STANDARD PLATE", "result": "inactive; negative"}, {"measurement": "mutagenic call", "setting": "Test System: E. COLI, Strain/Indicator: WP2 UVRA, Metabolic Activation: HAMSTER, LIVER, S-9, AROCLOR 1254, Method: STANDARD PLATE", "result": "inactive; negative"}, {"measurement": "mutagenic call", "setting": "Test System: E. COLI, Strain/Indicator: WP2 UVRA, Metabolic Activation: HAMSTER, LIVER, S-9, Method: STANDARD PLATE", "result": "inactive; negative"}, {"measurement": "mutagenic call", "setting": "Test System: E. COLI, Strain/Indicator: WP2 UVRA, Metabolic Activation: MOUSE, LIVER, S-9, Method: STANDARD PLATE", "result": "inactive; negative"}, {"measurement": "mutagenic call", "setting": "Test System: E. COLI, Strain/Indicator: WP2 UVRA, Metabolic Activation: NONE, Method: STANDARD PLATE", "result": "inactive; negative"}, {"measurement": "mutagenic call", "setting": "Test System: E. COLI, Strain/Indicator: WP2 UVRA, Metabolic Activation: RAT, LIVER, S-9, AROCLOR 1254, Method: STANDARD PLATE", "result": "inactive; negative"}, {"measurement": "mutagenic call", "setting": "Test System: E. COLI, Strain/Indicator: WP2 UVRA, Metabolic Activation: RAT, LIVER, S-9, Method: STANDARD PLATE", "result": "inactive; negative"}]}
